Laboratory results: patent publication US20190226949A1, “IRIDIUM COMPLEXES FOR CELLULAR IMAGING” (UNIVERSITY OF SOUTH AUSTRALIA, priority 2016, published 2019)
Several values for one entry are separate records, joined by “and”; a condition that tells them apart may be missing. Equal entries are not always repeated. Entries after “also recorded” stand apart in the source; their conditions may differ. Each block holds one compound with its values, some of them ahead of it.

Columns and labels:
[1] = test system: prostate cancer DU145 cells; experiment: Staining of prostate cells with lipid dyes, DU145; format: cell-based, Human; settings: DU145 fixed in 4% paraformaldehyde, 30 minutes
Experimental: (§1) The fluorescent dyes, Filipin and BODIPY® 493/503, were incubated for 30 minutes with each of the four prostate cell lines (i.e. PNT1a, DU145, 22RV1 and LNCaP), fixed in 4% paraformaldehyde and imaged under confocal microscopy, which was supplemented with two-photon Mai-Tai® and Argon lasers. Prostate cell lines grown on coverslips were stained with ReZolve-L1™ and IraZolve [Ir(ppy)2(TzPyCN)] in serum-free media for 30 minutes at 37° C. and 5% CO2 and imaged in live mode, avoiding the process of fixation. From this experiment, different staining patterns between prostate cell lines and the fluorescent dyes were clearly seen (FIG. 12). For example, the level of diffuse cytosolic staining vs membrane staining with Filipin varied between cell lines (FIG. 12 a-d). […] Differences in the 22RV1 and LNCaP staining pattern in comparison to PNT1a and DU145 were apparent with BODIPY® 493/503 fluorescent dye. […] The fluorescence of ReZolve-L1™ was low in non-malignant control PNT1a cells, when compared to prostate cancer cells (FIG. 12i-l). […] These positive results prompted us to analyse staining of the prostate cells with the fluorescent dye IraZolve (FIG. 12m-p). […] In contrast, the intensity of staining in the malignant cell lines DU145, 22RV1 and LNCaP with ReZolve-L1™ was significant. […]

[2] = test system: non-malignant control PNT1a cells; experiment: Staining of prostate cells with lipid dyes, PNT1a; format: cell-based, Human; settings: PNT1a fixed in 4% paraformaldehyde, 30 minutes
Experimental: as §1

[3] = test system: prostate cancer 22RV1 cells; experiment: Staining of prostate cells with lipid dyes, 22RV1; format: cell-based, Human; settings: 22RV1 fixed in 4% paraformaldehyde, 30 minutes
Experimental: as §1

[4] = test system: prostate cancer LNCaP cells; experiment: Staining of prostate cells with lipid dyes, LNCaP; format: cell-based, Human; settings: 30 minutes
Experimental: as §1

[5] = previously published complex; cited from earlier work
[6] = Lipophilicity by shake-flask method (7.4-buffered PBS / n-octanol); format: physicochemical; settings: 7.4-buffered PBS solution and n-octanol
Experimental: The lipophilicity of the iridium complexes was measured by the shake-flask method using 7.4-buffered PBS and n-octanol as solvents (Table 2). The values range between 1.49 and 2.68 are typical for cyclometalated iridium complexes that have not been bioconjugated. […] In general, neutral complexes have log D7.4 values above 2.00 and there is an increased in lipophilicity of extending the tetrazolato ligand with the addition of a phenyl spacer in [Ir(ppy)2(TzPyPhCN)], or by extending the conjugation on passing from pyridine to quinoline or isoquinoline for [Ir(ppy)2(TzQn)] and [Ir(ppy)2(TziQn)]. Methylation in all cases reduces lipophilicity to log D7.4 values […], with the same trend within the family of methylated complexes as previously observed for the neutral ones.

[7] = Photophysical measurements (absorption, emission, lifetime, quantum yield) in diluted solutions; format: physicochemical
Source text: A summary of the photophysical data for the complexes as diluted solutions (10^−5 M) in dichloromethane, water, PBS, lysosomal fluid solution, and ethyl laurate is reported in Table 1. All the listed aqueous media also contain 0.1% DMSO to favour the solubilisation of the complexes. The various solvents have been chosen to identify potential modulations on the photophysical behaviour of the iridium complexes in diverse cellular environments such as cytoplasm, endosome/lysosomes acidic organelles, or lipid-rich compartments like membranes, endoplasmic reticulum, and lipid droplets. In general, the photophysical characteristics were measured in aerated solutions to take into account the presence of oxygen in live cells. On the other hand, dichloromethane solutions were compared as aerated and degassed to confirm oxygen sensitivity and triplet character of the excited states of the complexes.
Absorption spectra were recorded at room temperature using a Cary 4000 UV/Vis spectrometer. Uncorrected steady state emission and excitation spectra were recorded on an Edinburgh FLSP980-S2S2-stm spectrometer equipped with: i) a temperature-monitored cuvette holder; ii) 450 W Xenon arc lamp; iii) double excitation and emission monochromators; iv) a Peltier cooled Hamamatsu R928P photomultiplier tube (spectral range 200-870 nm). Emission and excitation spectra were corrected for source intensity (lamp and grating) and emission spectral response (detector and grating) by a calibration curve supplied with the instrument. According to the approach described by Demas and Crosby, luminescence quantum yields (Φem) were measured in optically dilute solutions (O.D.<0.1 at excitation wavelength) obtained from absorption spectra on a wavelength scale [nm] and compared to the reference emitter by the following equation: […]
where A is the absorbance at the excitation wavelength (λ), I is the intensity of the excitation light at the excitation wavelength (λ), n is the refractive index of the solvent, D is the integrated intensity of the luminescence and Φ is the quantum yield. The subscripts r and x refer to the reference and the sample, respectively. The quantum yield determinations were performed at identical excitation wavelength for the sample and the reference, therefore cancelling the I(λr)/I(λx) term in the equation. The quantum yields of complexes were measured against Rubipy in water (Φr=0.028). Emission lifetimes (z) were determined with the time correlated single photon counting technique (TCSPC) with the same Edinburgh FLSP980-S2S2-stm spectrometer using either a pulsed picosecond LED (EPLED/EPL 377 nm, FHWM<800 ps) or a microsecond flashlamp. The goodness of fit was assessed by minimising the reduced χ^2 function and by visual inspection of the weighted residuals. The solvents used for the preparation of the solutions for the photophysical investigations were of LR grade and the water was deionised. Degassing of the dichlorometane solutions was performed using the freeze-pump-thaw method. Experimental uncertainties are estimated to be ±8% for lifetime determinations, ±20% for quantum yields, ±2 nm and ±5 nm for absorption and emission peaks, respectively.

Compound: CC1=CC(C)=[N+]2C1=C(C)c1c(C)cc(C)n1[B-]2(F)F [BODIPY® 493/503, reference compound]
staining pattern [1]: localised staining to lipid droplets
staining pattern [2]: localised staining to lipid droplets
staining pattern [3]: diffused cytosolic staining and localised staining to lipid droplets

Compound: CCCCC[C@@H](O)[C@H]1C(=O)O[C@H](C)[C@@H](O)/C=C/C=C/C=C/C=C/C=C(\C)[C@@H](O)C[C@H](O)C[C@H](O)C[C@H](O)C[C@H](O)C[C@H](O)C[C@@H]1O [Filipin, reference compound]
staining pattern [1]: relatively low level
staining pattern ([4]; LNCaP fixed in 4% paraformaldehyde): a number of small vesicles were brightly stained
staining pattern [2]: a number of small vesicles were brightly stained
staining pattern [3]: quite bright vesicular and plasma membrane staining

Compound: c1cc[c]2c(c1)-c1cccc[n+]1[Ir]213([c]2ccccc2-c2cccc[n+]21)[n]1nnnc1-c1cccc[n+]13 [[Ir(ppy)2(TzPy)]]
λem, structured emission [5]: 481 nm and 510 nm

logD7.4, distribution coefficient [6]: 2.09 ± 0.06
Emission λem ([7]; DCM, 298K, 10^−5 M): 618 nm
τaer, excited state lifetime (relative weight in parentheses) ([7]; DCM, aerated, 298K): 131 ns
Φaer, quantum yield ([7]; DCM, aerated, versus Ru(bpy)3^2+ in water (φr = 0.028)): 0.055
τdeaer, excited state lifetime (relative weight in parentheses) ([7]; DCM, deaerated, 298K): 529 ns
Φdeaer, quantum yield ([7]; DCM, deaerated, versus Ru(bpy)3^2+ in water (φr = 0.028)): 0.397
knr ([7]; DCM, calculated as [(1 − φ)/τ] from deaerated solutions): 1.140 10^6s^−1
kr ([7]; DCM, calculated as [φ/τ] from deaerated solutions): 7.505 10^5s^−1
Emission λem ([7]; H2O with 0.1% DMSO, 298K, aerated): 618 nm
Φ, quantum yield ([7]; H2O with 0.1% DMSO, aerated, versus Ru(bpy)3^2+ in water): 0.047
Compound: N#Cc1ccc2[n+](c1)[Ir]13([c]4ccccc4-c4cccc[n+]41)([c]1ccccc1-c1cccc[n+]13)[n]1nnnc1-2 [[Ir(ppy)2(TzPyCN)]]
staining pattern / intensity ([4]; live LNCaP, 20 μM, serum-free media, listed as IraZolve): stains the endoplasmic reticulum, where both phospholipids and triacylglycerides are synthesised, and it also co-localises with fatty acids in lipid droplets; also recorded: almost identical to that observed for ReZolve-L1™; also recorded: significantly greater
Absorption λabs [nm] (10^4ε [M^−1cm^−1]) ([7]; DCM, 10^−5 M): 263 (6.57) nm (10^4ε [M^−1cm^−1]) and 339 (1.59) nm (10^4ε [M^−1cm^−1]) and 382 (1.09) nm (10^4ε [M^−1cm^−1]) and 420 (0.58) nm (10^4ε [M^−1cm^−1])
